Measured values published in patent US7371536B2, “Methods for transporting vitamin C” (priority 1999, dated 2008).

Experiments:
Assay type in all cases: cell-based
[1] = molecular target: T1, rat SVCT1 (Rattus norvegicus, UniProt Q9WTW7); experiment: L-[14C]ascorbic acid radiotracer uptake in Xenopus oocytes expressing rat SVCT1
T1 construct: expressed in transfected cells; host or cells: Xenopus laevis oocytes injected with cRNA
Method: (§1) Rat SVCT1 and SVCT2 clones were obtained by isolating SVCT1 cDNA from rat kidney by expression cloning as described in Hediger et al., Methods Enzymol. 296:17-52 (1998). The SVCT2 cDNA was subsequently isolated by PCR-based homology screening of a rat brain cDNA library. A 2.5-kb rabbit cDNA with 96% identity to residues 96-505 of the rat SVCT2 was obtained by RT-PCR. Radiotracer and voltage-clamp experiments were performed (at 22° C.) in Xenopus oocytes two to seven days after injection with ˜25 ng of SVCT1 or SVCT2 cRNA synthesized in vitro. Radiotracer uptake was determined by incubating 6-10 oocytes for 30 or 60 min in standard 100 mM Na^+ or Na^+-free media with 10-600 μM L-[^14C]ascorbic acid.
(§2) Functional characterization of SVCT1 and SVCT2 in Xenopus oocytes—Oocytes were isolated from Xenopus laevis (under 2-aminoethylbenzoate anaesthesia), treated with collagenase A and stored at 18° C. in modified Barths' medium. Oocytes were injected with ≈25 ng of SVCT1 or SVCT2 cRNA synthesized in vitro, or water only (control), and incubated 2-7 days before radiotracer or voltage-clamp experiments were performed. Standard Na^+ uptake medium comprised 100 mM NaCl, 2 mM KCl, 1 mM CaCl2, 1 mM MgCl2, 10 mM HEPES (pH 7.5 with Tris base). For Na^+-free or low-Na^+ media, NaCl was replaced by equimolar choline chloride; likewise, Cl^− was replaced by gluconate for Cl^−-free medium. For pH-sensitivity experiments, Na^+ media were buffered at pH 5.5-8.0 using 0-5 mM MES, 0-5 mM HEPES and 0-5 mM Tris base. L-Ascorbic acid-containing solutions were freshly-prepared (without dithiothreitol) and used immediately.
(§3) Radiotracer uptake was determined by incubating 6-10 oocytes for 30 or 60 min in standard Na^+ or Na^+-free media (at 22° C.) with 10-600 μM L-[1-^14C]ascorbic acid (final specific activity 0.3 GBq/mmol). Oocytes were solubilized with 10% SDS and [^14C]-content was measured by liquid scintillation counting. A two-microelectrode voltage-clamp was used to measure currents in control oocytes and oocytes injected with rat SVCT1 or rat SVCT2 cRNA. Microelectrodes (resistance 0.5-5 MΩ) were filled with 3 M KCl. Oocytes were superfused at 22° C. in standard Na^+ medium and clamped at a holding potential (Vh) of −50 mV. For continuous current monitoring at Vh=−50 mV, the current was low-pass filtered at 20 Hz (sampling at 1 Hz). Additionally, step-changes in membrane potential (Vm) were applied (from +50 mV to −150 mV in 20-mV increments), each for a duration of 100 ms, before and after the addition of substrate; current was low-pass filtered at 500 Hz and digitized at 5 kHz. Test solutions were always washed out with substrate-free medium (100 mM choline chloride) at pH 7.5 for several minutes. Steady-state data (obtained by averaging the points over the final 16.7 ms at each Vm step when step-changes were applied) were fitted to equation (1) below, for which I is the evoked current (i.e., the difference in steady-state current measured in the presence and absence of substrate), Imax the derived current maximum, S the concentration of substrate S (Na^+ or L-ascorbic acid),
(§4) [formula] the substrate concentration at which current was half-maximal, and nH the Hill coefficient for S. (For radiotracer experiments, I was replaced with velocity V and Imax replaced with the derived maximal velocity, Vmax.)

[2] = molecular target: T2, rat SVCT2 (Rattus norvegicus, UniProt Q9WTW8); experiment: L-[14C]ascorbic acid radiotracer uptake in Xenopus oocytes expressing rat SVCT2
T2 construct: expressed in transfected cells; host or cells: Xenopus laevis oocytes injected with cRNA (vector pTLN2)
T2 sequence (Q9WTW8 whole entry): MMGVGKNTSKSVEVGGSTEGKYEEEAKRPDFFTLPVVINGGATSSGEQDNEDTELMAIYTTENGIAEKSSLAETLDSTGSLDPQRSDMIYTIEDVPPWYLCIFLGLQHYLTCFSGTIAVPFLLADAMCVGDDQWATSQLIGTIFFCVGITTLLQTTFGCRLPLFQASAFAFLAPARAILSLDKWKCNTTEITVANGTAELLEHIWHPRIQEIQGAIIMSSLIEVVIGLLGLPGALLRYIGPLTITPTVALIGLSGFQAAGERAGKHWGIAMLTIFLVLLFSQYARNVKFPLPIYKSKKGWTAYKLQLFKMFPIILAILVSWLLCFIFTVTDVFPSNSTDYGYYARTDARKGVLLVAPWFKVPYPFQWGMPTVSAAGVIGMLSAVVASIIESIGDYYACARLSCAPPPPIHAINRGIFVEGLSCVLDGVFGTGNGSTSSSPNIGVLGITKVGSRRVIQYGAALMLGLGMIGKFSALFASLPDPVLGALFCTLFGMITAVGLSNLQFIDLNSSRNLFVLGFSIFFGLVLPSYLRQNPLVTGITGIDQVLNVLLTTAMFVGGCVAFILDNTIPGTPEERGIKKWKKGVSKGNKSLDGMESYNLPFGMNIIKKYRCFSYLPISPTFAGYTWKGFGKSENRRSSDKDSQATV
Method: as §1, §2
as §3, with “Additionally, step-changes in membrane potential (Vm) were applied (from +50 mV to −150 mV in 20-mV increments), each for a duration of 100 ms, before and after the addition of substrate; current was low-pass filtered at 500 Hz and digitized at 5 kHz. Test solutions were always washed out with substrate-free medium (100 mM choline chloride) at pH 7.5 for several minutes.” left out, “acid), […]” for “acid),”

[3] = molecular target: T1, rat SVCT1; experiment: Two-microelectrode voltage-clamp of Xenopus oocytes expressing rat SVCT1; conditions: for evoked current / substrate selectivity (in words): oocytes expressing SVCT1
Method: as §1, with “A 2.5-kb rabbit cDNA with 96% identity to residues 96-505 of the rat SVCT2 was obtained by RT-PCR.” left out
as §2, §3, §4

[4] = molecular target: T3, human SVCT1 (Homo sapiens, UniProt Q9UHI7); experiment: L-[14C]ascorbic acid radiotracer uptake in Xenopus oocytes expressing human SVCT1; conditions: data not shown
T3 construct: expressed in transfected cells; host or cells: Xenopus laevis oocytes injected with cRNA (vector pTLN2)
T3 sequence (Q9UHI7 whole entry): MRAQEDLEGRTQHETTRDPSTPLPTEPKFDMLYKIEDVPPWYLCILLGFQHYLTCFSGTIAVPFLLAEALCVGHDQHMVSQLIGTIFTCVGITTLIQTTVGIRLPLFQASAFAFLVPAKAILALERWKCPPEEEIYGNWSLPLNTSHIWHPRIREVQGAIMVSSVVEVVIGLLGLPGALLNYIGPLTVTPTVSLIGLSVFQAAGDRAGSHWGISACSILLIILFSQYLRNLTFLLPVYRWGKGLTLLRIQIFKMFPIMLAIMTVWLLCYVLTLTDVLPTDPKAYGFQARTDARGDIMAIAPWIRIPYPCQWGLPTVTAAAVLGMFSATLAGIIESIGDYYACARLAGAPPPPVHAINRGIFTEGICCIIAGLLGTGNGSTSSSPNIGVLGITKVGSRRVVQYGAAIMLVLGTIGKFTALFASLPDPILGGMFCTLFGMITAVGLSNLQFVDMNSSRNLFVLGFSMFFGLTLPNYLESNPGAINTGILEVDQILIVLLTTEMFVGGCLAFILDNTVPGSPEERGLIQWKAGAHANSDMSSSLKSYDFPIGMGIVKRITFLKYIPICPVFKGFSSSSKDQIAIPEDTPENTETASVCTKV
Method: Functional characterization in Xenopus oocytes—SVCT1 and SVCT2 cDNAs were subcloned into the pTLN2 vector (to improve functional expression in oocytes) and used for cRNA synthesis in vitro using the MEGAscript kit and T7 RNA polymerase (from Ambion). Oocytes were isolated from Xenopus laevis, treated with collagenase A and maintained at 18° C. in modified Barths' medium. Oocytes were injected with 15 ng SVCT1 or SVCT2 cRNA or water only. The radiotracer uptake and voltage-clamp experiments described below were conducted 2-5 days post-injection in standard medium of composition 100 mM NaCl, 2 mM KCl, 1 mM CaCl2, 1 mM MgCl2, and 10 mM HEPES (buffered to pH 7.5 with Tris base). For low-Na^+ or Na^+-free media, NaCl was replaced with choline chloride. For pH-dependence experiments, Na^+ media were buffered to between pH 5.5 and pH 8.0 using 0-5 mM MES, 0-5 mM HEPES and 0-5 mM Tris base. L-Ascorbic acid-containing solutions were always freshly prepared and used immediately. […] Oocytes were solubilized with 10% SDS and carbon-14 content measured by liquid scintillation counting. A two-microelectrode voltage-clamp was used to measure currents associated with SVCT1 expressed in oocytes. Oocytes were superfused at 22° C. in standard Na^+ medium and clamped at −50 mV. Current was continuously monitored by sampling at 1 Hz. Test solutions were always washed out with substrate-free, Na^+-free medium at pH 7.5 for several minutes. Once again, saturation kinetics data were fit to a modified Hill equation in which I and Imax were replaced by uptake V and maximal velocity Vmax for analysis of radiotracer uptake data.

[5] = molecular target: T3, human SVCT1; experiment: Two-microelectrode voltage-clamp of Xenopus oocytes expressing human SVCT1; conditions: for transport / substrate selectivity (in words): 500 μM, −50 mV
Method: Functional characterization in Xenopus oocytes—SVCT1 and SVCT2 cDNAs were subcloned into the pTLN2 vector (to improve functional expression in oocytes) and used for cRNA synthesis in vitro using the MEGAscript kit and T7 RNA polymerase (from Ambion). Oocytes were isolated from Xenopus laevis, treated with collagenase A and maintained at 18° C. in modified Barths' medium. Oocytes were injected with 15 ng SVCT1 or SVCT2 cRNA or water only. The radiotracer uptake and voltage-clamp experiments described below were conducted 2-5 days post-injection in standard medium of composition 100 mM NaCl, 2 mM KCl, 1 mM CaCl2, 1 mM MgCl2, and 10 mM HEPES (buffered to pH 7.5 with Tris base). For low-Na^+ or Na^+-free media, NaCl was replaced with choline chloride. For pH-dependence experiments, Na^+ media were buffered to between pH 5.5 and pH 8.0 using 0-5 mM MES, 0-5 mM HEPES and 0-5 mM Tris base. L-Ascorbic acid-containing solutions were always freshly prepared and used immediately. Radiotracer uptake was determined by incubating 8-12 oocytes for 30 min (within the time-course of linear uptake) in standard Na^+, low-Na^+ or Na^+-free media with 10-500 μM L-[1-^14C]ascorbic acid (final specific activity ≈0.3 GBq/mmol). Oocytes were solubilized with 10% SDS and carbon-14 content measured by liquid scintillation counting. A two-microelectrode voltage-clamp was used to measure currents associated with SVCT1 expressed in oocytes. Oocytes were superfused at 22° C. in standard Na^+ medium and clamped at −50 mV. Current was continuously monitored by sampling at 1 Hz. Test solutions were always washed out with substrate-free, Na^+-free medium at pH 7.5 for several minutes. Once again, saturation kinetics data were fit to a modified Hill equation in which I and Imax were replaced by uptake V and maximal velocity Vmax for analysis of radiotracer uptake data.

T1 sequence (Q9WTW7 whole entry): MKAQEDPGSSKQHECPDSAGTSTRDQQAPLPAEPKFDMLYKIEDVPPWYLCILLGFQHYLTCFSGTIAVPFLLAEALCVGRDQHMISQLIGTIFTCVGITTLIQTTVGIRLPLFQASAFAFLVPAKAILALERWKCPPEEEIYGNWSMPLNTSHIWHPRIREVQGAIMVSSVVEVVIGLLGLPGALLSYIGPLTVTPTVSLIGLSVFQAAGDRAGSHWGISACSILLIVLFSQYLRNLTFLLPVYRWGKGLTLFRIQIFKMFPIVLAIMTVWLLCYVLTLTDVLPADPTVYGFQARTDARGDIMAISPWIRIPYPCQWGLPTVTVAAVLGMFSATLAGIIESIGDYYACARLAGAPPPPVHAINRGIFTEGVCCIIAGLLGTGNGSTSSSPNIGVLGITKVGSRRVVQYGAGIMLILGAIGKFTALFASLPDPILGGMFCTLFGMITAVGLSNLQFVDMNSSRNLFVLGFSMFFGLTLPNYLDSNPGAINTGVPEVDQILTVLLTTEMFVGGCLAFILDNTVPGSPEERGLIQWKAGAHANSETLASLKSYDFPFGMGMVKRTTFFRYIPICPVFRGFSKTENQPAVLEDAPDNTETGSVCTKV

| SMILES | inhibition of SVCT1-mediated L-[14C]ascorbic acid uptake (in words) [1] | inhibition of SVCT2-mediated L-[14C]ascorbic acid uptake (in words) [2] | evoked current / substrate selectivity (in words) [3] | inhibition of L-[14C]ascorbic acid uptake (in words) [4] | transport / substrate selectivity (in words) [5] | other results |
| --- | --- | --- | --- | --- | --- | --- |
| O=c1[nH]c(=O)c2[nH]cnc2[nH]1 [xanthine] | modest inhibition | modest inhibition | tiny outward currents |  |  |  |
| CC(=O)Oc1ccccc1C(=O)O [aspirin, acetyl-salicylic acid] | modest inhibition | modest inhibition | tiny outward currents | not significantly inhibited |  |  |
| O=C(CCc1ccc(O)cc1)c1c(O)cc(O)cc1O [phloretin] | inhibited | inhibited | sizable outward current |  |  | inhibition of L-[14C]ascorbic acid uptake [4]: ≈ 80%; inhibition of the L-ascorbic acid-evoked current (in words) ([5]; FIG. 8A, 100 μM phloretin): potent inhibitor; block of the Na^+ leak current (in words) ([5]; absence of L-ascorbic acid or other substrate): blocked; mode of inhibition of L-[14C]ascorbic acid uptake ([1]; Dixon analysis): non-competitive inhibitor; Ki ([1]; FIG. 4I, read-out: Ki, Dixon analysis of L-[14C]ascorbic acid uptake): ~65 µM; block of the inward current evoked by L-ascorbic acid ([3]; FIG. 4H): blocked; Ki ([3]; uniport mode, absence of L-ascorbic acid, read-out: apparent Ki, inhibition of the Na^+ leak current): ~100 µM |

Continued, in another order:

| inhibition of SVCT1-mediated L-[14C]ascorbic acid uptake (in words) [1] | inhibition of SVCT2-mediated L-[14C]ascorbic acid uptake (in words) [2] | evoked current / substrate selectivity (in words) [3] | inhibition of L-[14C]ascorbic acid uptake (in words) [4] | transport / substrate selectivity (in words) [5] | SMILES | other results |
| --- | --- | --- | --- | --- | --- | --- |
| modest inhibition | modest inhibition | tiny outward currents |  |  | O=C(CCc1ccc(O)cc1)c1c(O)cc(O)cc1O[C@@H]1O[C@H](CO)[C@@H](O)[C@H](O)[C@H]1O [phlorizin] |  |
|  |  | excluded | not significantly inhibited | excluded | O=C[C@H](O)[C@@H](O)[C@H](O)[C@H](O)CO [D-glucose] |  |
|  |  |  |  | barely transported | O=C1O[C@H]([C@@H](O)CO)C(=O)C1=O [dehydroascorbic acid] | evoked current relative to that for L-ascorbic acid ([3]; substrate selectivity, FIG. 4F): ≈ 5% |
